# Measurements published in the supplement of paper PMC10307832.
# Legend:
# Test in all cases: relative viability (nuclei count vs DMSO), 5 days (fraction); higher = more cells survive
# NCI-H1437 = system: NCI-H1437
# Procedure, shortened: (§1)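 Lung cancer cell lines in 1536-well plates got either a single drug or a fixed anchor-drug dose together with five library-drug doses (not always all listed) in √10 steps, by pin tool, on the day after seeding. Nuclei were counted after 5 days, and relative viability is the treated-to-vehicle ratio of nuclei counts. Values are medians of duplicate plates.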
# Calu-6 = system: Calu-6
# Procedure, shortened: as §1
# HCC-366 = system: HCC-366
# Procedure, shortened: as §1
# NCI-H3122 = system: NCI-H3122
# Procedure, shortened: as §1
# NCI-H2085 = system: NCI-H2085
# Procedure, shortened: as §1
# NCI-H1299 = system: NCI-H1299
# Procedure, shortened: as §1
# A549 = system: A549
# Procedure, shortened: as §1
# NCI-H1623 = system: NCI-H1623
# Procedure, shortened: as §1
# NCI-H1703 = system: NCI-H1703
# Procedure, shortened: as §1
# EBC-1 = system: EBC-1
# Procedure, shortened: as §1
# IA-LM = system: IA-LM
# Procedure, shortened: as §1
# LOU-NH91 = system: LOU-NH91
# Procedure, shortened: as §1
# HCC-44 = system: HCC-44
# Procedure, shortened: as §1
# NCI-H1648 = system: NCI-H1648
# Procedure, shortened: as §1
compound,measurement,setting,value
COc1nc(C)cnc1NS(=O)(=O)c1cccnc1-c1ccc(-c2nnco2)cc1 [Zibotentan] + COc1cc2c(Oc3ccc(NC(=O)C4(C(=O)Nc5ccc(F)cc5)CC4)cc3F)ccnc2cc1OCCCN1CCOCC1 [Foretinib] (partner 0.25 µM),relative viability,NCI-H1437; first compound 0.08 µM,1.27
same,relative viability,NCI-H1437; first compound 0.253 µM,1.18
same,relative viability,NCI-H1437; first compound 0.8 µM,1.26
same,relative viability,NCI-H1437; first compound 2.53 µM,1.26
same,relative viability,Calu-6; first compound 0.08 µM,0.811
same,relative viability,Calu-6; first compound 0.253 µM,0.947
same,relative viability,Calu-6; first compound 0.8 µM,0.849
same,relative viability,Calu-6; first compound 2.53 µM,0.895
same,relative viability,HCC-366; first compound 0.08 µM,0.977
same,relative viability,HCC-366; first compound 0.253 µM,0.903
same,relative viability,HCC-366; first compound 0.8 µM,0.964
same,relative viability,HCC-366; first compound 2.53 µM,0.976
same,relative viability,NCI-H3122; first compound 0.08 µM,1.02
same,relative viability,NCI-H3122; first compound 0.253 µM,0.975
same,relative viability,NCI-H3122; first compound 0.8 µM,0.983
same,relative viability,NCI-H3122; first compound 2.53 µM,1.02
same,relative viability,NCI-H2085; first compound 0.08 µM,0.97
same,relative viability,NCI-H2085; first compound 0.253 µM,1.05
same,relative viability,NCI-H2085; first compound 0.8 µM,0.928
same,relative viability,NCI-H2085; first compound 2.53 µM,1.18
same,relative viability,NCI-H1299; first compound 0.08 µM,1.11
same,relative viability,NCI-H1299; first compound 0.253 µM,1.05
same,relative viability,NCI-H1299; first compound 0.8 µM,1.05
same,relative viability,NCI-H1299; first compound 2.53 µM,1.13
same,relative viability,A549; first compound 0.08 µM,1.02
same,relative viability,A549; first compound 0.253 µM,0.916
same,relative viability,A549; first compound 0.8 µM,1.1
same,relative viability,A549; first compound 2.53 µM,1.1
same,relative viability,NCI-H1623; first compound 0.08 µM,0.84
same,relative viability,NCI-H1623; first compound 0.253 µM,0.765
same,relative viability,NCI-H1623; first compound 0.8 µM,0.855
same,relative viability,NCI-H1623; first compound 2.53 µM,0.771
same,relative viability,NCI-H1703; first compound 0.08 µM,0.422
same,relative viability,NCI-H1703; first compound 0.253 µM,0.347
same,relative viability,NCI-H1703; first compound 0.8 µM,0.395
same,relative viability,NCI-H1703; first compound 2.53 µM,0.314
same,relative viability,EBC-1; first compound 0.08 µM,0.0991
same,relative viability,EBC-1; first compound 0.253 µM,0.0961
same,relative viability,EBC-1; first compound 0.8 µM,0.103
same,relative viability,EBC-1; first compound 2.53 µM,0.113
same,relative viability,IA-LM; first compound 0.08 µM,1.06
same,relative viability,IA-LM; first compound 0.253 µM,1.15
same,relative viability,IA-LM; first compound 0.8 µM,1.09
same,relative viability,IA-LM; first compound 2.53 µM,1.3
same,relative viability,LOU-NH91; first compound 0.08 µM,0.903
same,relative viability,LOU-NH91; first compound 0.253 µM,0.841
same,relative viability,LOU-NH91; first compound 0.8 µM,0.969
same,relative viability,LOU-NH91; first compound 2.53 µM,0.888
COc1nc(C)cnc1NS(=O)(=O)c1cccnc1-c1ccc(-c2nnco2)cc1 [Zibotentan] + COc1cccc2cc(-c3nc([C@H]4CC[C@H](C(=O)O)CC4)n4ncnc(N)c34)[nH]c12 [OSI-027] (partner 0.5 µM),relative viability,HCC-44; first compound 0.08 µM,0.585
same,relative viability,HCC-44; first compound 0.8 µM,0.621
same,relative viability,HCC-44; first compound 2.53 µM,0.558
same,relative viability,NCI-H1437; first compound 0.08 µM,0.845
same,relative viability,NCI-H1437; first compound 0.253 µM,0.84
same,relative viability,NCI-H1437; first compound 0.8 µM,0.855
same,relative viability,NCI-H1437; first compound 2.53 µM,0.919
same,relative viability,HCC-366; first compound 0.08 µM,0.922
same,relative viability,HCC-366; first compound 0.253 µM,0.884
same,relative viability,HCC-366; first compound 0.8 µM,0.389
same,relative viability,HCC-366; first compound 2.53 µM,1.1
same,relative viability,NCI-H3122; first compound 0.08 µM,1.01
same,relative viability,NCI-H3122; first compound 0.8 µM,0.915
same,relative viability,NCI-H3122; first compound 2.53 µM,0.957
same,relative viability,NCI-H2085; first compound 0.08 µM,0.78
same,relative viability,NCI-H2085; first compound 0.253 µM,0.727
same,relative viability,NCI-H2085; first compound 0.8 µM,0.442
same,relative viability,NCI-H2085; first compound 2.53 µM,0.832
same,relative viability,NCI-H1648; first compound 0.08 µM,0.255
same,relative viability,NCI-H1648; first compound 0.253 µM,0.241
same,relative viability,NCI-H1648; first compound 0.8 µM,0.256
same,relative viability,NCI-H1648; first compound 2.53 µM,0.242
same,relative viability,NCI-H1623; first compound 0.08 µM,0.423
same,relative viability,NCI-H1623; first compound 0.253 µM,0.42
same,relative viability,NCI-H1623; first compound 0.8 µM,0.424
same,relative viability,NCI-H1623; first compound 2.53 µM,0.443
same,relative viability,LOU-NH91; first compound 0.08 µM,0.673
same,relative viability,LOU-NH91; first compound 0.253 µM,0.681
same,relative viability,LOU-NH91; first compound 0.8 µM,0.732
same,relative viability,LOU-NH91; first compound 2.53 µM,0.784
COc1nc(C)cnc1NS(=O)(=O)c1cccnc1-c1ccc(-c2nnco2)cc1 [Zibotentan] + Cc1cc(Nc2cc(N3CCN(C)CC3)nc(Sc3ccc(NC(=O)C4CC4)cc3)n2)n[nH]1 [Tozasertib] (partner 0.1 µM),relative viability,HCC-44; first compound 0.08 µM,1.33
same,relative viability,HCC-44; first compound 0.8 µM,0.852
same,relative viability,HCC-44; first compound 2.53 µM,0.862
same,relative viability,NCI-H1437; first compound 0.08 µM,0.421
same,relative viability,NCI-H1437; first compound 0.253 µM,0.378
same,relative viability,NCI-H1437; first compound 0.8 µM,0.38
same,relative viability,NCI-H1437; first compound 2.53 µM,0.448
same,relative viability,HCC-366; first compound 0.08 µM,0.132
same,relative viability,HCC-366; first compound 0.253 µM,0.0914
same,relative viability,HCC-366; first compound 0.8 µM,0.0627
same,relative viability,HCC-366; first compound 2.53 µM,0.156
same,relative viability,NCI-H3122; first compound 0.08 µM,0.399
same,relative viability,NCI-H3122; first compound 0.8 µM,0.361
same,relative viability,NCI-H3122; first compound 2.53 µM,0.413
same,relative viability,NCI-H2085; first compound 0.08 µM,0.788
same,relative viability,NCI-H2085; first compound 0.253 µM,0.698
same,relative viability,NCI-H2085; first compound 0.8 µM,0.703
same,relative viability,NCI-H2085; first compound 2.53 µM,0.821
same,relative viability,NCI-H1648; first compound 0.08 µM,0.499
same,relative viability,NCI-H1648; first compound 0.253 µM,0.403
same,relative viability,NCI-H1648; first compound 0.8 µM,0.47
same,relative viability,NCI-H1648; first compound 2.53 µM,0.576
same,relative viability,NCI-H1623; first compound 0.08 µM,0.464
same,relative viability,NCI-H1623; first compound 0.8 µM,0.43
same,relative viability,NCI-H1623; first compound 2.53 µM,0.427
same,relative viability,LOU-NH91; first compound 0.08 µM,0.729
same,relative viability,LOU-NH91; first compound 0.253 µM,0.586
same,relative viability,LOU-NH91; first compound 0.8 µM,0.722
same,relative viability,LOU-NH91; first compound 2.53 µM,0.669
